ChEMBL document CHEMBL4261619, “Sentulic acid isolated from Sandoricum koetjape Merr attenuates lipopolysaccharide and interferon gamma co-stimulated nitric oxide production in murine macrophage RAW264 cells” (Bioorg Med Chem Lett, 2018)
The source made the active and inactive calls. The calls are words filed in the database; no cut-off is given here.

Assays:
Format in all cases: cell-based
[1] = target: T1, Toll-like receptor 4 (Mus musculus) (UniProt Q9QUK6); assay: Inhibition of LPS binding to TLR4 in IFNgamma-stimulated mouse RAW264.7 cells assessed as effect on ratio of phosphorylated TAK1 to total TAK1 at 100 uM measured after 60 mins by Western blot analysis relative to beta-actin (reference value: 3.1)
T1 sequence (whole entry): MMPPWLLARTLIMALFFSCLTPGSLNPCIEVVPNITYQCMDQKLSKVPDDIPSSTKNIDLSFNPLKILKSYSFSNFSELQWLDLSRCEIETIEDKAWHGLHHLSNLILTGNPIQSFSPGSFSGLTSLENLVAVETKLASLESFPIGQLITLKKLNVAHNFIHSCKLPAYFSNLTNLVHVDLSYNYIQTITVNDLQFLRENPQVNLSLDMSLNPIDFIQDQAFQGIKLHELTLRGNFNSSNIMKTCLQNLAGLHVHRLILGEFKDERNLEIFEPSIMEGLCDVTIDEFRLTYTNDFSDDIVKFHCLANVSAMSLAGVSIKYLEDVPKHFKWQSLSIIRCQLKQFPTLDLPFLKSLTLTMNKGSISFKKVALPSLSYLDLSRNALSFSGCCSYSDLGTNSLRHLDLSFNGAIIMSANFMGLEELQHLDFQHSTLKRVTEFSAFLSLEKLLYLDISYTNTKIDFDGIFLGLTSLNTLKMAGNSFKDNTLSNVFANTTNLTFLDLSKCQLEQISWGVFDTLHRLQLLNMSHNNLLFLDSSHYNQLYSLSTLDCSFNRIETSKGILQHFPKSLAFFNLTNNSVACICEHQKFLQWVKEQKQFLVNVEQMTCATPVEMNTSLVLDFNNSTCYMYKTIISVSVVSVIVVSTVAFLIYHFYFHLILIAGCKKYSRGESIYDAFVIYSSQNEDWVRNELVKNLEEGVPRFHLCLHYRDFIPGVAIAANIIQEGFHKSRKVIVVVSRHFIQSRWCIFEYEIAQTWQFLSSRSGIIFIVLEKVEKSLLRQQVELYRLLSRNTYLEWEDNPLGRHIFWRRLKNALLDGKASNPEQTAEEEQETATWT

[2] = test system: RAW264.7; assay: Inhibition of IFNgamma binding to IFNGR in LPS-stimulated mouse RAW264.7 cells assessed as effect on ratio of phosphorylated Stat1 to total Stat1 at 100 uM measured after 15 mins by Western blot analysis relative to beta-actin (reference value: 1.3)
[3] = target: T2, Nuclear factor erythroid 2-related factor 2 (Mus musculus) (UniProt Q60795); assay: Induction of NRF2-ARE mediated HO-1 expression in mouse RAW264.7 cells at 100 uM after 2 hrs by Western blot analysis
T2 sequence (whole entry): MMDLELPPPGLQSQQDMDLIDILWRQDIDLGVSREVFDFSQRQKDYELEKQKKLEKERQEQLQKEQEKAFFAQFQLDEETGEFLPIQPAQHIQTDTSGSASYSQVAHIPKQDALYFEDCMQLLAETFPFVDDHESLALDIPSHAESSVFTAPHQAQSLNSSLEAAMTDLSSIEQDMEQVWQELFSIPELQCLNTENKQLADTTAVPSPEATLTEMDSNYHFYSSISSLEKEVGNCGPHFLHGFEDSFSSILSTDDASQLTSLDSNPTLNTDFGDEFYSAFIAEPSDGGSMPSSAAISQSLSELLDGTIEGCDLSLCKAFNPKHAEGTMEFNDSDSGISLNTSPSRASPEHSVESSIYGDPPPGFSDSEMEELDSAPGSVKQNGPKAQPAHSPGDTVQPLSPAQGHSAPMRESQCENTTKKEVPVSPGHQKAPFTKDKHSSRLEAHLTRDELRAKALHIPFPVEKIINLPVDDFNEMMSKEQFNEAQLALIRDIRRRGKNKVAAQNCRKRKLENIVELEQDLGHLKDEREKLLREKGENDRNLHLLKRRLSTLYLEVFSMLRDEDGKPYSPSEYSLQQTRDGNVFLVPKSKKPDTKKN

[4] = target: T1, Toll-like receptor 4 (Mus musculus); assay: Inhibition of LPS binding to TLR4 in IFNgamma-stimulated mouse RAW264.7 cells assessed as effect on ratio of phosphorylated ERK to total ERK at 100 uM measured after 15 mins by Western blot analysis relative to beta-actin (reference value: 0.8)
[5] = target: T1, Toll-like receptor 4 (Mus musculus); assay: Inhibition of LPS binding to TLR4 in IFNgamma-stimulated mouse RAW264.7 cells assessed as effect on ratio of phosphorylated p38 to total p38 at 100 uM measured after 60 mins by Western blot analysis relative to beta-actin (reference value: 1.9)
[6] = target: T1, Toll-like receptor 4 (Mus musculus); assay: Inhibition of LPS binding to TLR4 in IFNgamma-stimulated mouse RAW264.7 cells assessed as effect on ratio of phosphorylated TAK1 to total TAK1 at 100 uM measured after 15 mins by Western blot analysis relative to beta-actin (reference value: 1.3)
[7] = target: T1, Toll-like receptor 4 (Mus musculus); assay: Inhibition of LPS binding to TLR4 in IFNgamma-stimulated mouse RAW264.7 cells assessed as effect on ratio of phosphorylated AKT to total AKT at 100 uM measured after 15 mins by Western blot analysis relative to beta-actin (reference value: 1.2)
[8] = target: T1, Toll-like receptor 4 (Mus musculus); assay: Inhibition of LPS binding to TLR4 in IFNgamma-stimulated mouse RAW264.7 cells assessed as effect on ratio of phosphorylated ERK to total ERK at 100 uM measured after 60 mins by Western blot analysis relative to beta-actin (reference value: 3)
[9] = target: T1, Toll-like receptor 4 (Mus musculus); assay: Inhibition of LPS binding to TLR4 in IFNgamma-stimulated mouse RAW264.7 cells assessed as effect on ratio of phosphorylated ERK to total ERK at 100 uM measured after 30 mins by Western blot analysis relative to beta-actin (reference value: 0.8)
[10] = target: T1, Toll-like receptor 4 (Mus musculus); assay: Inhibition of LPS binding to TLR4 in IFNgamma-stimulated mouse RAW264.7 cells assessed as effect on ratio of phosphorylated ERK to total ERK at 100 uM measured after 120 mins by Western blot analysis relative to beta-actin (reference value: 3)
[11] = target: T1, Toll-like receptor 4 (Mus musculus); assay: Inhibition of LPS binding to TLR4 in IFNgamma-stimulated mouse RAW264.7 cells assessed as reduction in nitric oxide production pretreated for 2 hrs followed by LPS/IFNgamma stimulation and measured after 24 hrs
[12] = target: T1, Toll-like receptor 4 (Mus musculus); assay: Inhibition of LPS binding to TLR4 in IFNgamma-stimulated mouse RAW264.7 cells assessed as suppression of iNOS mRNA expression at 100 uM by qRT-PCR analysis
[13] = test system: RAW264.7; assay: Inhibition of IFNgamma binding to IFNGR in LPS-stimulated mouse RAW264.7 cells assessed as effect on ratio of phosphorylated Stat1 to total Stat1 at 100 uM measured after 120 mins by Western blot analysis relative to beta-actin (reference value: 4.1)
[14] = target: T1, Toll-like receptor 4 (Mus musculus); assay: Inhibition of LPS binding to TLR4 in IFNgamma-stimulated mouse RAW264.7 cells assessed as suppression of TNFalpha mRNA expression at 100 uM by qRT-PCR analysis

## C=C(C)[C@@H]1CC[C@]2(C)[C@H](CC=C3[C@@H]4CC(C)(C)CC[C@]4(C)CC[C@]32C(=O)O)[C@@]1(C)CCC(=O)O
[1]
  fold change (FC): 1
[2]
  fold change (FC): 1.2
[3]
  Activity: inactive
[4]
  fold change (FC): 0.8
[5]
  fold change (FC): 2
[6]
  fold change (FC): 1
[7]
  fold change (FC): 1
[8]
  fold change (FC): 2.2
[9]
  fold change (FC): 0.7
[10]
  fold change (FC): 2.2
[11]
  inhibition: Dose-dependent effect
[12]
  inhibition: Active
[13]
  fold change (FC): 1.6
[14]
  inhibition: Active
